Active and inactive are the calls of the source. The calls are words filed in the database; no cut-off is given here.
Tests used:
U373 MG [1] = assay: Growth inhibition of empty vector transfected human U373 cells after 7 days by MTT assay; assay type: functional, U-373MG ATCC; conditions: 168 h
U373 MG [2] = assay: Growth inhibition of MGMT-transfected human U373 cells after 7 days by MTT assay; assay type: functional, U-373MG ATCC; conditions: 168 h
SNB-19 [3] = assay: Growth inhibition of empty vector transfected human SNB19 cells after 7 days by MTT assay; assay type: functional; conditions: SNB-19, 168 h
SNB-19 [4] = assay: Growth inhibition of MGMT-transfected human SNB19 cells after 7 days by MTT assay; assay type: functional; conditions: SNB-19, 168 h
U373 MG [5] = assay: Ratio of GI50 for MGMT-transfected human U373 cells to GI50 for empty vector transfected human U373 cells; assay type: functional, U-373MG ATCC
U373 MG [6] = assay: Potency index, ratio of temozolomide GI50 to compound GI50 for MGMT-transfected human U373 cells; assay type: functional, U-373MG ATCC
SNB-19 [7] = assay: Potency index, ratio of temozolomide GI50 to compound GI50 for MGMT-transfected human SNB19 cells; assay type: functional
U373 MG [8] = assay: Potency index, ratio of temozolomide GI50 to compound GI50 for empty vector transfected human U373 cells; assay type: functional, U-373MG ATCC
SNB-19 [9] = assay: Potency index, ratio of temozolomide GI50 to compound GI50 for empty vector transfected human SNB19 cells; assay type: functional
SNB-19 [10] = assay: Ratio of GI50 for MGMT-transfected human SNB19 cells to GI50 for empty vector transfected human SNB19 cells; assay type: functional
[11] = Growth inhibition of human U373VR cells by MTT assay; assay type: functional
DNA [12] = assay: Induction of Escherichia coli pBR322 DNA interstrand cross linking using 5'-end labeled [gamma32P]ATP primer at <=1000 uM after 2 to 40 hrs by PAGE based autoradiographic method; assay type: nucleic-acid assay
HCT-116 = assay: Growth inhibition of human HCT116 cells harboring hMLH1 mutation; assay type: functional
[13] = Growth inhibition of human SNB19VR cells by MTT assay; assay type: functional
DLD-1 = assay: Growth inhibition of human DLD1 cells harboring hMSH6 mutation; assay type: functional
[14] = tested on: Panel NCI-60 (60 carcinoma cell lines); assay: Growth inhibition of human NCI60 cells after 48 hrs by MTT assay; assay type: functional
Escherichia coli = assay: Induction of Escherichia coli linearized pBR322 DNA alkylation at clusters of 3/5 guanines using 5'-end labeled [gamma32P]ATP primer after 2 hrs by PAGE based taq polymerase stop assay
dsDNA [15] = assay: Induction of double stranded DNA break in MGMT-transfected human U373 cells assessed as increase in gamma-H2AX level at 100 uM after 72 hrs by flow cytometry relative to control; assay type: cell-based
DNA [16] = assay: Induction of Escherichia coli pBR322 DNA cleavage assessed as covalent modification at N-7 guanine at 10 to 1000 uM after 2 hrs by PAGE based autoradiographic method; assay type: nucleic-acid assay
dsDNA [17] = assay: Induction of double stranded DNA break in MGMT-transfected human U373 cells assessed as increase in gamma-H2AX level at 100 uM after 72 hrs by flow cytometry; assay type: cell-based

| Structure (SMILES) | GI50 (U373 MG [1]) | GI50 (U373 MG [2]) | GI50 (SNB-19 [3]) | GI50 (SNB-19 [4]) | also measured |
| --- | --- | --- | --- | --- | --- |
| NC(=O)c1ncn2c(=O)n(C3CC3)nnc12 | 306 µM | 360 µM | 428 µM | > 500 µM | – |
| CS(=O)(=O)Cn1nnc2c(C(N)=O)ncn2c1=O | 20.2 µM | 7.5 µM | 13.8 µM | 18.3 µM | – |
| NC(=O)c1ncn2c(=O)n(CC3CC3)nnc12 | 386 µM | 149 µM | 286 µM | 223 µM | – |
| CCOC(=O)Cn1nnc2c(C(N)=O)ncn2c1=O | 63.2 µM | 55.6 µM | 52.4 µM | 61.1 µM | – |
| NC(=O)c1nc[nH]c1N/N=N/CC(F)F | 205 µM | 248 µM | 68.8 µM | 70.3 µM | – |
| NC(=O)Cn1nnc2c(C(N)=O)ncn2c1=O | 65.4 µM | 72.3 µM | 38 µM | 95.3 µM | – |
| CSCn1nnc2c(C(N)=O)ncn2c1=O | 59 µM | 56.5 µM | 107 µM | 151 µM | – |
| NC(=O)c1nc[nH]c1N/N=N/C1CC1 | > 500 µM | > 500 µM | > 500 µM | > 500 µM | – |
| NC(=O)c1ncn2c(=O)n(CCCl)nnc12 [MITOZOLOMIDE] | 22 µM | 40.3 µM | 10 µM | 68.4 µM | RatioGI50 (U373 MG [5]): >2; RatioGI50 (U373 MG [6]): 10; RatioGI50 (SNB-19 [7]): 10; RatioGI50 (U373 MG [8]): >3; RatioGI50 (SNB-19 [9]): >3; RatioGI50 (SNB-19 [10]): >2 |
| COCC/N=N/Nc1[nH]cnc1C(N)=O | > 500 µM | > 500 µM | > 500 µM | > 500 µM | – |
| NC(=O)CCn1nnc2c(C(N)=O)ncn2c1=O | 138 µM | 355 µM | 321 µM | 398 µM | – |
| COC(=O)C/N=N/Nc1[nH]cnc1C(N)=O | 32.6 µM | 46.4 µM | 47.7 µM | 49.7 µM | – |
| COCn1nnc2c(C(N)=O)ncn2c1=O | 26 µM | 33.1 µM | 30.8 µM | 37.9 µM | – |
| CC#CCn1nnc2c(C(N)=O)ncn2c1=O | 36.5 µM | 33 µM | 39.6 µM | 37.6 µM | – |
| CN(C)C(=O)Cn1nnc2c(C(N)=O)ncn2c1=O | 85.1 µM | 92.5 µM | 67.7 µM | 73.4 µM | – |
| C=CCn1nnc2c(C(N)=O)ncn2c1=O | 141 µM | 199 µM | 258 µM | 239 µM | – |
| NC(=O)c1nc[nH]c1N/N=N/CCO | 383 µM | 336 µM | 441 µM | > 500 µM | – |
| NC(=O)c1ncn2c(=O)n(COCc3ccccc3)nnc12 | 16.5 µM | 28.8 µM | 52.2 µM | 48.5 µM | – |
| COC(=O)Cn1nnc2c(C(N)=O)ncn2c1=O | 32.1 µM | 46.4 µM | 47.5 µM | 49 µM | – |

| Structure (SMILES) | GI50 (U373 MG [1]) | GI50 (U373 MG [2]) | GI50 (SNB-19 [3]) | GI50 (SNB-19 [4]) | also measured |
| --- | --- | --- | --- | --- | --- |
| CNC(=O)Cn1nnc2c(C(N)=O)ncn2c1=O | 260 µM | 263 µM | 65.8 µM | 246 µM | – |
| N#CC/N=N/Nc1[nH]cnc1C(N)=O | 106 µM | 242 µM | 111 µM | 271 µM | – |
| NC(=O)c1ncn2c(=O)n(CC(=O)N3CCOCC3)nnc12 | 243 µM | 132 µM | 62.3 µM | 102 µM | – |
| NC(=O)c1nc[nH]c1N/N=N/CC(F)(F)F | 209 µM | 423 µM | 68.8 µM | 131 µM | – |
| NC(=O)c1nc[nH]c1N/N=N/CC1CC1 | > 500 µM | > 500 µM | > 500 µM | > 500 µM | – |
| CC(C)(C)C(=O)OCn1nnc2c(C(N)=O)ncn2c1=O | 13.2 µM | 28.9 µM | 45 µM | 28 µM | – |
| CC(=O)OCn1nnc2c(C(N)=O)ncn2c1=O | 11.8 µM | 39.4 µM | 48.3 µM | 40.4 µM | – |
| C[S+]([O-])Cn1nnc2c(C(N)=O)ncn2c1=O (stereo not drawn) | 13.7 µM | 14.4 µM | 26.8 µM | 20.1 µM | – |
| NC(=O)c1ncn2c(=O)n(CCO)nnc12 | 288 µM | 322 µM | 204 µM | 417 µM | – |
| NC(=O)c1ncn2c(=O)n(CC(=O)O)nnc12 | 69.5 µM | 140 µM | 265 µM | 296 µM | – |
| C[Si](C)(C)C#CCn1nnc2c(C(N)=O)ncn2c1=O | 30.3 µM | 30.7 µM | 39.1 µM | 39.5 µM | – |
| CCOC(=O)C=[N+]=[N-] | > 800 µM | > 800 µM | > 800 µM | > 800 µM | – |
| NC(=O)c1ncn2c(=O)n(CO)nnc12 | – | – | 46.2 µM | 42.1 µM | – |
| CCOC(=O)C/N=N/Nc1[nH]cnc1C(N)=O | 30.3 µM | 23.4 µM | 33.6 µM | 37.4 µM | – |
| NC(=O)c1ncn2c(=O)n(CCC(=O)O)nnc12 | > 250 µM | > 250 µM | > 250 µM | > 250 µM | – |
| CCOC(=O)CCn1nnc2c(C(N)=O)ncn2c1=O | 129 µM | 143 µM | 367 µM | 255 µM | – |
| NC(=O)c1ncn2c(=O)n(CCl)nnc12 | 29.3 µM | 24.4 µM | 34.6 µM | 31 µM | – |
| Cn1nnc2c(C(N)=O)ncn2c1=O [TEMOZOLOMIDE] | 72.9 µM | 395 µM | 45.6 µM | 526 µM | RatioGI50 (U373 MG [5]): 5; GI50 [11]: 289 µM; Activity (DNA [12]): inactive; GI50 (HCT-116): > 500 µM; GI50 [13]: 280 µM; GI50 (DLD-1): > 500 µM; GI50 [14]: > 100 µM; RatioGI50 (SNB-19 [10]): 11 |
| C#CC/N=N/Nc1[nH]cnc1C(N)=O | 32 µM | 35.6 µM | 39.1 µM | 33.9 µM | Activity (Escherichia coli): Dose-dependent effect; fold change (FC) (dsDNA [15]): > 2; Activity (DNA [16]): Active; Activity (dsDNA [17]): Active |

— ChEMBL document CHEMBL4190174 (2016)
